Reference: patent publication US9150546B2, “Triazine derivative and pharmaceutical composition comprising the same” (SHIONOGI & CO., LTD., priority 2009, dated 2015)
pIC50: −log10 of the molar value.

The molecules below were run against human P2X3 receptor (Homo sapiens (Human), UniProt P56373) (assay: P2X3 receptor inhibition, ATP-evoked Fluo-3 fluorescence (FDSS 3000)). Conditions: C6BU-1 cell transfected with human P2X3 receptor gene.
Assay type: cell-based

Sequence of human P2X3 receptor (P56373 whole entry): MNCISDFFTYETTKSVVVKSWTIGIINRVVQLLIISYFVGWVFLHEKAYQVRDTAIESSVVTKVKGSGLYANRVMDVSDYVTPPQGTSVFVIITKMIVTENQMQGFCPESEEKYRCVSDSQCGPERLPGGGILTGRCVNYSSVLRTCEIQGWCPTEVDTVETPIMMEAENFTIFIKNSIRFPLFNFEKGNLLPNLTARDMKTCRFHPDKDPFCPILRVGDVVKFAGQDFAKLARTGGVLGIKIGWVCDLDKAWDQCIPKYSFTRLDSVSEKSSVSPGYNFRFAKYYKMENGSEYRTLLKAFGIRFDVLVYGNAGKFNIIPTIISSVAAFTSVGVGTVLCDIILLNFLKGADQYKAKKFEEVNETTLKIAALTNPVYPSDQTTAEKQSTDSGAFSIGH

Row | SMILES | pIC50
1 | COC(=O)C(C)(C)Cn1c(=O)[nH]/c(=N\c2ccc(OC(C)C)c(F)c2)n(Cc2ccc(C)cc2)c1=O [I-404] | 7.92
2 | CC(C)n1c(=O)nc(Nc2ccc(C(=O)NCC3CC3)cc2)n(Cc2ccc(Cl)cc2)c1=O [I-258] | 6.17
3 | CCCCn1c(=O)nc(Nc2cccc(C(F)(F)F)c2)n(Cc2ccc(C)cc2)c1=O [I-029] | 6.23
4 | COC(=O)c1ccc(Nc2nc(=O)n(C(C)C)c(=O)n2Cc2ccc(F)cc2)cc1Cl [I-238] | 6.18
5 | CC(C)Oc1ccc(/N=c2\[nH]c(=O)n(CC(C)(C)C(=O)O)c(=O)n2CC2CCCC2)cc1Cl [I-554] | 6.86
6 | COC(=O)C(C)(C)Cn1c(=O)[nH]/c(=N\c2ccc3c(ccn3CC(C)C)c2)n(Cc2ccc(Cl)cc2)c1=O [I-506] | 6.55
7 | Cc1ccc(Cn2c(Nc3ccc(OC(C)C)cc3)nc(=O)n(C(C)C)c2=O)cc1F [I-217] | 6.57
8 | O=c1nc(Nc2ccc(OC3CCOCC3)cc2)n(Cc2ccc(Cl)cc2)c(=O)n1CCO [I-324] | 6.51
9 | CCCCc1ccc(Nc2nc(=O)n(CCO)c(=O)n2Cc2ccc(Cl)cc2)cc1 [I-344] | 6.89
10 | COc1ccc(/N=c2\[nH]c(=O)n(CC(C)(C)C(=O)O)c(=O)n2Cc2ccc(Cl)cc2)cc1C [I-447] | 6.55
11 | CC(C)Oc1ccc(Nc2nc(=O)n(CC(CO)CO)c(=O)n2Cc2ccc(Cl)cc2)cc1 [I-368] | 7.39
12 | Cc1cc2cc(/N=c3\[nH]c(=O)n(CCCC(=O)O)c(=O)n3Cc3ccc(Cl)cc3)ccc2o1 [I-505] | 6.92
13 | COC(=O)[C@@H](C)Cn1c(=O)[nH]/c(=N\c2ccc(OC(C)C)c(F)c2)n(Cc2ccc(Cl)cc2)c1=O [I-453] | 8.30
14 | CCOc1ccc(Nc2nc(=O)n(C[C@H](C)C(=O)OC)c(=O)n2Cc2ccc(Cl)cc2)cc1 [I-530] | 7.47
15 | Cc1cc(/N=c2\[nH]c(=O)n(CC(C)(C)C(=O)O)c(=O)n2Cc2ccc(Cl)cc2)ccc1OC(C)C [I-432] | 7.59
16 | COC(=O)[C@H](C)Cn1c(=O)[nH]/c(=N\c2ccc3oc(C)cc3c2)n(Cc2ccc(Cl)cc2)c1=O [I-558] | 8.30
17 | CC(C)Oc1ccc(Nc2nc(=O)n(CCCN)c(=O)n2Cc2ccc(Cl)cc2)cc1F [I-317] | 6.86
18 | CC(C)Oc1ccc(Nc2nc(=O)n(CC(F)(F)C(=O)O)c(=O)n2Cc2ccc(Cl)cc2)cc1F [I-283] | 7.72
19 | CCOC(=O)CCCn1c(=O)[nH]/c(=N\c2ccc3oc(C)cc3c2)n(Cc2ccc(Cl)cc2)c1=O [I-504] | 7.82

Row | SMILES | pIC50
20 | COC(=O)[C@@H](C)Cn1c(=O)[nH]/c(=N\c2ccc(OC(C)C)c(Cl)c2)n(CC2CCCCC2)c1=O [I-548] | 7.92
21 | CC(C)Oc1ccc(Nc2nc(=O)n(CCCO)c(=O)n2Cc2ccc(Cl)cc2)cc1Cl [I-362] | 8.15
22 | CC(C)Oc1ccc(Nc2nc(=O)n(C(C)C)c(=O)n2Cc2ccc(Cl)cc2)cc1C#N [I-245] | 6.77
23 | CC(C)n1c(=O)nc(Nc2cccc(C(F)(F)F)c2)n(Cc2ccc(F)cc2)c1=O [I-126] | 6.16
24 | CC(C)Oc1ccc(Nc2nc(=O)n(CC(C)(C)CN)c(=O)n2Cc2ccc(Cl)cc2)cc1F [I-331] | 7.18
25 | CC(C)(Cn1c(=O)[nH]/c(=N\c2cccc(OC(F)F)c2)n(Cc2ccc(Cl)cc2)c1=O)C(=O)O [I-448] | 6.41
26 | CC(C)Oc1ccc(Nc2nc(=O)n(CCN3CCCCC3)c(=O)n2Cc2ccc(Cl)cc2)cc1F [I-282] | 7.57
27 | CC(C)Oc1ccc(/N=c2\[nH]c(=O)n(CCC(C)(C)C(=O)O)c(=O)n2Cc2ccc(Cl)cc2)cc1F [I-420] | 7.28
28 | O=c1nc(Nc2ccc(OC(F)(F)F)cc2)n(Cc2ccc(Cl)cc2)c(=O)n1CCO [I-383] | 6.27
29 | COC(=O)[C@H](C)Cn1c(=O)[nH]/c(=N\c2ccc(OC(C)C)cc2)n(Cc2ccc(Cl)cc2)c1=O [I-479] | 8.15
30 | CC(C)Oc1ccc(/N=c2\[nH]c(=O)n(CCC(C)(C)C(=O)OCc3ccccc3)c(=O)n2Cc2ccc(Cl)cc2)cc1F [I-406] | 7.52
31 | CC(C)Oc1ccc(Nc2nc(=O)n(C(C)C)c(=O)n2Cc2ccc(F)cc2)cc1C#N [I-227] | 6.01
32 | CCOC(=O)c1ccccc1Cn1c(=O)[nH]/c(=N\c2ccc(OC(C)C)c(F)c2)n(Cc2ccc(Cl)cc2)c1=O [I-454] | 7.62
33 | CC(C)(Cn1c(=O)[nH]/c(=N\c2cccc(OC(F)(F)F)c2)n(Cc2ccc(Cl)cc2)c1=O)C(=O)O [I-469] | 7.00
34 | CC(C)Oc1ccc(/N=c2\n(C)c(=O)n(CCOC3CCCCO3)c(=O)n2Cc2ccc(Cl)cc2)cc1F (centres unmarked) [I-546] | 6.34
35 | COC(=O)C[C@H](C)n1c(=O)[nH]/c(=N\c2ccc(OC(C)C)c(F)c2)n(Cc2ccc(Cl)cc2)c1=O [I-523] | 7.14
36 | CC(C)Oc1ccc(/N=c2\[nH]c(OCC(C)(C)C(=O)O)nc(=O)n2Cc2ccc(Cl)cc2)cc1Cl [II-010] | 6.46
37 | CC(C)Oc1ccc(/N=c2\[nH]c(=O)n(Cc3ccc(C(=O)O)cc3)c(=O)n2Cc2ccc(Cl)cc2)cc1F [I-445] | 8.10
38 | CC(C)Oc1ccc(/N=c2\[nH]c(=O)n(CC(=O)NCC#N)c(=O)n2Cc2ccc(Cl)cc2)cc1Cl [I-435] | 8.22

Row | SMILES | pIC50
39 | CSc1cccc(Nc2nc(=O)n(C(C)C)c(=O)n2Cc2ccc(F)cc2)c1 [I-130] | 6.02
40 | CC(C)Oc1ccc(Nc2nc(=O)n(CCNC(=O)NCCO)c(=O)n2Cc2ccc(Cl)cc2)cc1F [I-390] | 7.17
41 | Cc1cc(/N=c2\[nH]c(=O)n([C@H](C)CC(=O)O)c(=O)n2Cc2ccc(Cl)cc2)ccc1OC(C)C [I-563] | 7.40
42 | CCOC(=O)COc1ccc(Nc2nc(=O)n(C(C)C)c(=O)n2Cc2ccc(Cl)cc2)cc1Cl [I-241] | 6.35
43 | CC(C)Oc1ccc(/N=c2\[nH]c(OCC(=O)O)nc(=O)n2Cc2ccc(Cl)cc2)cc1Cl [II-009] | 7.47
44 | CC(C)COc1ccc(Nc2nc(=O)n(CCO)c(=O)n2Cc2ccc(Cl)cc2)cc1F [I-323] | 6.83
45 | CC(C)Oc1ccc(Nc2nc(=O)n(CCNC(N)=O)c(=O)n2Cc2ccc(Cl)cc2)cc1F [I-386] | 7.39
46 | CCOc1ccc(/N=c2\[nH]c(=O)n(C[C@H](C)C(=O)O)c(=O)n2Cc2ccc(Cl)cc2)cc1Cl [I-539] | 8.15
47 | Cc1ccc(Cn2c(=O)n(C[C@H](C)C(=O)O)c(=O)[nH]/c2=N\c2ccc(OC(C)C)c(F)c2)cc1 [I-517] | 7.82
48 | O=c1nc(Nc2cccc(C(F)(F)F)c2)n(Cc2ccc(Cl)cc2)c(=O)n1CCO [I-313] | 6.75
49 | Cc1ccc(Cn2c(Nc3cccc(C(F)(F)F)c3)nc(=O)n(C(C)C)c2=O)cc1 [I-021] | 6.71
50 | CNC(=O)Cn1c(=O)nc(Nc2ccc(OC(C)C)c(F)c2)n(Cc2ccc(Cl)cc2)c1=O [I-294] | 7.40
51 | CC(C)(Cn1c(=O)[nH]/c(=N\c2ccc(OC(F)F)cc2)n(Cc2ccc(Cl)cc2)c1=O)C(=O)O [I-543] | 6.76
52 | CN(C)Cc1ccc(/N=c2\[nH]c(=O)n(CC(C)(C)C(=O)O)c(=O)n2Cc2ccc(Cl)cc2)cc1Cl [I-495] | 6.90
53 | CC(C)n1c(=O)nc(Nc2cccc(F)c2)n(Cc2ccc(F)cc2)c1=O [I-182] | 6.15
54 | CC(C)Oc1ccc(/N=c2\[nH]c(=O)n(CC(=O)NCC(=O)O)c(=O)n2Cc2ccc(Cl)cc2)cc1F [I-400] | 7.36
55 | COC(=O)[C@H](C)Cn1c(=O)[nH]/c(=N\c2ccc(OC(C)C)c(F)c2)n(Cc2ccc(Cl)cc2)c1=O [I-452] | 8.52
56 | CSc1cccc(/N=c2\[nH]c(=O)n(CC(C)(C)C(=O)O)c(=O)n2Cc2ccc(Cl)cc2)c1 [I-510] | 7.01
